Data: the NIST ThermoML archive (doi:10.1016/j.fluid.2017.11.013)
Several values for one entry are separate records, joined by “and”; a condition that tells them apart may be missing. Equal entries are not always repeated. ± gives the expanded uncertainty stated by the source.

Settings: Coaxial cylinder method

C=C [ethene]
thermal conductivity
Settings | 283.47 K | 283.96 K
101 kPa, Gas | 0.01865 ± 0.00069 W/m/K | 0.01869 ± 0.00069 W/m/K
3380 kPa, Fluid (supercritical or subcritical phases) | – | 0.02528 ± 0.0013 W/m/K
3960 kPa, Fluid (supercritical or subcritical phases) | – | 0.02767 ± 0.0014 W/m/K
4620 kPa, Fluid (supercritical or subcritical phases) | 0.03417 ± 0.0016 W/m/K | 0.03396 ± 0.0016 W/m/K
4770 kPa, Fluid (supercritical or subcritical phases) | 0.03732 ± 0.0017 W/m/K | –
4910 kPa, Fluid (supercritical or subcritical phases) | 0.04251 ± 0.0034 W/m/K | –
4960 kPa, Fluid (supercritical or subcritical phases) | 0.04566 ± 0.0026 W/m/K | –
4970 kPa, Fluid (supercritical or subcritical phases) | – | 0.04334 ± 0.002 W/m/K
5050 kPa, Fluid (supercritical or subcritical phases) | 0.05593 ± 0.0025 W/m/K | 0.04855 ± 0.0022 W/m/K
5090 kPa, Fluid (supercritical or subcritical phases) | 0.06391 ± 0.0027 W/m/K | 0.05262 ± 0.0025 W/m/K
5110 kPa, Fluid (supercritical or subcritical phases) | – | 0.05631 ± 0.0029 W/m/K
5120 kPa, Fluid (supercritical or subcritical phases) | 0.07425 ± 0.0028 W/m/K | 0.05987 ± 0.003 W/m/K
5140 kPa, Fluid (supercritical or subcritical phases) | 0.09013 ± 0.0034 W/m/K | –
5150 kPa, Fluid (supercritical or subcritical phases) | 0.1049 ± 0.0039 W/m/K and 0.1032 ± 0.0038 W/m/K | 0.06832 ± 0.004 W/m/K
5160 kPa, Fluid (supercritical or subcritical phases) | 0.1241 ± 0.0048 W/m/K | –
5170 kPa, Fluid (supercritical or subcritical phases) | 0.1339 ± 0.0054 W/m/K | –
5180 kPa, Fluid (supercritical or subcritical phases) | 0.1143 ± 0.005 W/m/K | –
5190 kPa, Fluid (supercritical or subcritical phases) | 0.09843 ± 0.0054 W/m/K | 0.08914 ± 0.0041 W/m/K
5200 kPa, Fluid (supercritical or subcritical phases) | 0.09006 ± 0.0078 W/m/K and 0.0888 ± 0.0078 W/m/K | 0.1005 ± 0.0042 W/m/K
5210 kPa, Fluid (supercritical or subcritical phases) | 0.08522 ± 0.0098 W/m/K | 0.11 ± 0.0044 W/m/K
5220 kPa, Fluid (supercritical or subcritical phases) | 0.08191 ± 0.011 W/m/K | 0.1162 ± 0.0045 W/m/K
5230 kPa, Fluid (supercritical or subcritical phases) | 0.07984 ± 0.01 W/m/K | 0.1119 ± 0.0042 W/m/K
5240 kPa, Fluid (supercritical or subcritical phases) | 0.07787 ± 0.0082 W/m/K | 0.1008 ± 0.0038 W/m/K
5250 kPa, Fluid (supercritical or subcritical phases) | 0.076 ± 0.0029 W/m/K | –
5260 kPa, Fluid (supercritical or subcritical phases) | – | 0.08675 ± 0.0033 W/m/K
5270 kPa, Fluid (supercritical or subcritical phases) | – | 0.08189 ± 0.0031 W/m/K
5290 kPa, Fluid (supercritical or subcritical phases) | 0.07419 ± 0.0041 W/m/K | 0.0783 ± 0.0031 W/m/K
5300 kPa, Fluid (supercritical or subcritical phases) | 0.07248 ± 0.0039 W/m/K | 0.07641 ± 0.0031 W/m/K
5340 kPa, Fluid (supercritical or subcritical phases) | – | 0.07293 ± 0.0037 W/m/K
5370 kPa, Fluid (supercritical or subcritical phases) | 0.07203 ± 0.0033 W/m/K | –
5390 kPa, Fluid (supercritical or subcritical phases) | 0.07122 ± 0.0029 W/m/K | –
5400 kPa, Fluid (supercritical or subcritical phases) | – | 0.07163 ± 0.0028 W/m/K
5440 kPa, Fluid (supercritical or subcritical phases) | 0.06948 ± 0.0027 W/m/K | –
5480 kPa, Fluid (supercritical or subcritical phases) | 0.06848 ± 0.0048 W/m/K | –
5500 kPa, Fluid (supercritical or subcritical phases) | – | 0.06977 ± 0.0027 W/m/K
5540 kPa, Fluid (supercritical or subcritical phases) | 0.06774 ± 0.0027 W/m/K | –
5590 kPa, Fluid (supercritical or subcritical phases) | – | 0.06886 ± 0.0027 W/m/K
5730 kPa, Fluid (supercritical or subcritical phases) | 0.06774 ± 0.0026 W/m/K | –
5820 kPa, Fluid (supercritical or subcritical phases) | 0.06848 ± 0.0027 W/m/K | –
5930 kPa, Fluid (supercritical or subcritical phases) | 0.06847 ± 0.0027 W/m/K | –
6220 kPa, Fluid (supercritical or subcritical phases) | 0.07041 ± 0.0027 W/m/K | –
6490 kPa, Fluid (supercritical or subcritical phases) | 0.07152 ± 0.0027 W/m/K | –
6720 kPa, Fluid (supercritical or subcritical phases) | 0.07259 ± 0.0028 W/m/K | –
6980 kPa, Fluid (supercritical or subcritical phases) | 0.07316 ± 0.0028 W/m/K | –
7060 kPa, Fluid (supercritical or subcritical phases) | 0.07329 ± 0.0028 W/m/K | –
7200 kPa, Fluid (supercritical or subcritical phases) | 0.07345 ± 0.0028 W/m/K | –
7610 kPa, Fluid (supercritical or subcritical phases) | 0.07519 ± 0.0029 W/m/K | –
8250 kPa, Fluid (supercritical or subcritical phases) | 0.07664 ± 0.0029 W/m/K | –
8910 kPa, Fluid (supercritical or subcritical phases) | 0.07874 ± 0.003 W/m/K | –
